Read-outs that look alike come from different tables or passages of the source.
Assays:
[1] = tested on: Apple anthracnose (apple bitter rot) fungus, Colletotrichum gloeosporioides; test: Inhibitory effect test for hyphal elongation on PDA, 20° C., 2 days; assay type: cell-based; conditions: read-out: Inhibition rate (%)
Procedure: (§1) Test Example 4: Inhibitory Effect Test for Hyphal Elongation (Apple Anthracnose (Apple Bitter Rot) Fungus, Colletotrichum gloeosporioides) A fungal flora (diameter: 4 mm) obtained by pre-cultivation was transplanted on PDA containing a given concentration of a chemical and then cultured at room temperature of 20° C. for 2 days, followed by measuring the diameter of the grown flora in the same manner as described in Test Example 3 to determine the hyphal elongation inhibition rate. In addition, theoretical values (of the hyphal elongation inhibition rate) were calculated according to the Colby's calculation formula based on the above determined hyphal elongation inhibition rate, and presented in parenthesis in the table.

[2] = tested on: Pear scab (Japanese pear scab) fungus, Venturia nashicola; test: Inhibitory effect test for hyphal elongation on PDA, 20° C., 25 days; assay type: cell-based; conditions: read-out: Inhibition rate (%)
Procedure: Test Example 3: Inhibitory Effect Test for Hyphal Elongation (Pear Scab (Japanese Pear Scab) Fungus, Venturia nashicola) A fungal flora (diameter: 4 mm) obtained by pre-cultivation was transplanted on PDA (potato dextrose agar medium) containing a given concentration of a chemical and then cultured at room temperature of 20° C. for 25 days, followed by measuring the diameter (mm) of the grown flora to determine the hyphal elongation inhibition rate. In addition, theoretical values (of the hyphal elongation inhibition rate) were calculated according to the Colby's calculation formula based on the above determined hyphal elongation inhibition rate, and presented in parenthesis in the table. Inhibition rate=(1−a/b)×100 wherein a: “Mean diameter (mm) of flora in the treated area”—4, b: “Mean diameter (mm) of flora in the untreated area”—4 Colby's formula=(X+Y)−XY/100 X: Inhibition rate when using isofetamid alone Y: Inhibition rate when using mandestrobin alone. When the experimental value is higher than the theoretical value, the fungicide composition of the present invention has a synergistic effect on pear scab (Japanese pear scab) fungus.

[3] = tested on: pear scab (Japanese pear scab); test: Effect test against pear scab (Japanese pear scab), effect on fruits, sprayed adult pear trees; assay type: in vivo, pear (cultivar: Housui); conditions: 8 days after the final spraying
Procedure: Test Example 2: Effect Test Against Pear Scab (Japanese Pear Scab) (Effect on Fruits) A given amount of a chemical was sprayed on adult trees of pear (cultivar: Housui) with a pressurized sprayer in an amount sufficient to drip from the leaves and fruits. The spraying was performed four times in total at intervals of 6 to 11 days, about 50 fruits per area were investigated about the presence or absence of the onset of the disease 8 days after the final spraying, and the ratio of the fruits with the onset of the disease and the disease control value were calculated (in triplicate). In addition, the theoretical value (of the disease control value) by mixing was also calculated according to the Colby's formula. Disease control value=(1−a/b)×100 wherein a: Mean ratio of fruits with the onset of the disease in the treated area, b: Mean ratio of fruits with the onset of the disease in the untreated area.

[4] = tested on: Apple anthracnose (apple bitter rot) fungus, Colletotrichum acutatum; test: Inhibitory effect test for hyphal elongation on PDA, 20° C., 2 days; assay type: cell-based; conditions: read-out: Inhibition rate (%)
Procedure: as §1, with “Test Example 5: Inhibitory Effect” for “Test Example 4: Inhibitory Effect”, “Fungus, Colletotrichum acutatum) A fungal” for “Fungus, Colletotrichum gloeosporioides) A fungal”, “the hyphal elongation, inhibition rate.” for “the hyphal elongation inhibition rate.”

[5] = tested on: pear scab (Japanese pear scab); test: Effect test against pear scab (Japanese pear scab), effect on leaves, sprayed adult pear trees; assay type: in vivo, pear (cultivar: Housui); conditions: sprayed four times
Procedure: Test Example 1: Effect Test Against Pear Scab (Japanese Pear Scab) (Effect on Leaves) A given amount of a chemical was sprayed on adult trees of pear (cultivar: Housui) with a pressurized sprayer in an amount sufficient to drip from the leaves. The spraying was performed four times in total at intervals of 8 to 10 days, about 50 leaves per area were investigated about the presence or absence of the onset of the disease days after the final spraying, and the ratio of the leaves with the onset of the disease and the disease control value were calculated (in triplicate). In addition, the theoretical value (of the disease control value) by mixing was also calculated according to the Colby's formula. Disease control value=(1−a/b)×100 wherein a: Mean ratio of leaves with the onset of the disease in the treated area, b: Mean ratio of leaves with the onset of the disease in the untreated area; Colby's formula=(X+Y)−XY/100 wherein X: Disease control value when using isofetamid alone, Y: Disease control value when using mandestrobin alone. When the actually measured value is higher than the theoretical value, the fungicide composition of the present invention has a synergistic effect on pear scab (Japanese pear scab).

[6] = Mandestrobin 0.01 ppm alone (Isofetamid 0 ppm)
[7] = Mandestrobin 0.1 ppm alone (Isofetamid 0 ppm)
[8] = Mandestrobin 1 ppm alone (Isofetamid 0 ppm)
[9] = Mandestrobin 10 ppm alone (Isofetamid 0 ppm)
[10] = Isofetamid 0.01 ppm alone (Mandestrobin 0 ppm)
[11] = Isofetamid 0.1 ppm alone (Mandestrobin 0 ppm)
[12] = Isofetamid 1 ppm alone (Mandestrobin 0 ppm)
[13] = Isofetamid 10 ppm alone (Mandestrobin 0 ppm)

Which results are given for `CNC(=O)C(OC)c1ccccc1COc1cc(C)ccc1C` (racemic) [Mandestrobin, (RS)-2-methoxy-N-methyl-2-[α-(2,5-xylyloxy)-o-tolyl]acetamide]?
inhibition at 0.01 ppm [1, 6]: 1.9%; inhibition at 0.1 ppm [1, 7]: 3.8%; inhibition at 1 ppm [1, 8]: 14.1%; inhibition at 10 ppm [1, 9]: 33.3%; inhibition at 0.01 ppm [2, 6]: 0%; inhibition at 0.1 ppm [2, 7]: 12.8%; inhibition at 1 ppm [2, 8]: 27.7%; inhibition at 10 ppm [2, 9]: 44.7%; Disease control value ([3]; Mandestrobin 70 ppm): 77.5; Ratio of fruits with onset of disease (%) ([3]; Mandestrobin 70 ppm): 10.3%; Disease control value ([3]; Mandestrobin 100 ppm): 90.1; Ratio of fruits with onset of disease (%) ([3]; Mandestrobin 100 ppm): 4.5%; Disease control value ([3]; Mandestrobin 140 ppm): 93.4; Ratio of fruits with onset of disease (%) ([3]; Mandestrobin 140 ppm): 3.0%; inhibition at 0.01 ppm [4, 6]: 0%; inhibition at 0.1 ppm [4, 7]: 0%; inhibition at 1 ppm [4, 8]: 42.6%; inhibition at 10 ppm [4, 9]: 55.4%; Disease control value ([5]; Mandestrobin 70 ppm): 65.9; Ratio of leaves with onset of disease (%) ([5]; Mandestrobin 70 ppm): 31.7%; Disease control value ([5]; Mandestrobin 140 ppm): 74.9; Ratio of leaves with onset of disease (%) ([5]; Mandestrobin 140 ppm): 23.3%

For `Cc1cc(OC(C)C)ccc1C(=O)C(C)(C)NC(=O)c1sccc1C` [Isofetamid, N-[1,1-dimethyl-2-(4-isopropoxy-o-tolyl)-2-oxoethyl]-3-methylthiophene-2-carboxamide], which inhibition at 0.01 ppm [1, 10] is on record?
Its inhibition at 0.01 ppm is 0%.

What about the inhibition at 0.1 ppm [1, 11] of the same compound?
Its inhibition at 0.1 ppm is 0%.

And the inhibition at 1 ppm [1, 12]?
Its inhibition at 1 ppm is 0%.

And the inhibition at 10 ppm [1, 13]?
Its inhibition at 10 ppm is 2.6%.

What about the inhibition at 0.01 ppm [2, 10] of the same compound?
The inhibition at 0.01 ppm was 0%.

And the inhibition at 0.1 ppm [2, 11]?
Its inhibition at 0.1 ppm is 8.5%.

What about the inhibition at 1 ppm [2, 12] of the same compound?
The inhibition at 1 ppm was 49.6%.

And the inhibition at 10 ppm [2, 13]?
The inhibition at 10 ppm was 100%.

What about the Disease control value ([3]; Isofetamid 93 ppm) of the same compound?
Its Disease control value is 83.4.

What about the “Ratio of fruits with onset of disease (%)” value (“Ratio of fruits … (%)” for short) ([3]; Isofetamid 93 ppm) of the same compound?
The value was 7.6%.

What about the Disease control value ([3]; Isofetamid 134 ppm) of the same compound?
Its Disease control value is 77.5.

What about the “Ratio of fruits … (%)” value ([3]; Isofetamid 134 ppm) of the same compound?
The value was 10.3%.

What about the Disease control value ([3]; Isofetamid 187 ppm) of the same compound?
The Disease control value was 62.3.

What about the “Ratio of fruits … (%)” value ([3]; Isofetamid 187 ppm) of the same compound?
The value was 17.2%.

And the inhibition at 0.01 ppm [4, 10]?
Its inhibition at 0.01 ppm is 6.9%.

What about the inhibition at 0.1 ppm [4, 11] of the same compound?
Its inhibition at 0.1 ppm is 3%.

And the inhibition at 1 ppm [4, 12]?
The inhibition at 1 ppm was 0%.

And the inhibition at 10 ppm [4, 13]?
Its inhibition at 10 ppm is 24.8%.

What about the Disease control value ([5]; Isofetamid 90 ppm) of the same compound?
Its Disease control value is 66.3.

And the “Ratio of leaves with onset of disease (%)” value ([5]; Isofetamid 90 ppm)?
The value was 31.3%.

And the Disease control value ([5]; Isofetamid 190 ppm)?
The Disease control value was 56.4.

What about the “Ratio of leaves with onset of disease (%)” value ([5]; Isofetamid 190 ppm) of the same compound?
The value was 40.5%.
